Patent US20080227813A1, “Pharmaceutical compositions and methods for treating diseases associated with neurodegeneration” (priority 2006, published 2008)

Columns and labels:
[1] = dog, in vivo
Beagle dogs [2] = assay: 14-day repeated dose oral toxicity study in Beagle dogs; type: in vivo; conditions: dog, 210 mg/kg/day oral, 14 days
Method: The control animals were treated in the same way with placebo gelatin capsules.
The checks of mortality were done twice daily. The clinical observations were performed at least twice daily and the weighing of non-consumed food was done daily. The body weights of the animals were measured once a week. The hematological, clinical chemical and ECG investigations, urinalysis and the opthalmological examinations were performed prior to the treatment and at the end of the treatment period. Terminally gross necropsy and histopathological examinations were performed according to the study plan.

[3] = rat, in vivo
Beagle dogs [4] = assay: 28-day repeated dose oral toxicity study in dogs; type: in vivo, dog; conditions: for No observed adverse effect level (NOAEL): Beagle dogs male and female, 28-day oral
Method: The control animals were treated in the same manner with placebo gelatin capsules.
Pre-treatment: hematological, clinical chemistry and ECG investigations and opthalmoscopic examinations were performed.
During the treatment period: check of mortality and clinical observation were performed at least twice daily and weighing the non-consumed food was performed daily. The body weights of animals were measured once a week. At the end of the treatment, hematological laboratory and ECG investigations, opthalmoscopic examinations, gross necropsy, histopathological and histometrical examinations were performed.

[5] = Double-blind multiple oral dose pharmacokinetics in male healthy volunteers
Method: The study was designed to compare the pharmacokinetic profile of Compound I from the following dose regimens: • A: Administration of 1 capsule containing 50 mg of Compound I or of 1 capsule of placebo, three times a day, total dose 150 mg. • B: Administration of 1 capsule containing 100 mg of Compound I or of 1 capsule of placebo, three times a day, total dose 300 mg.
The treatments were applied in parallel groups. […] The study was conducted according to the study protocol and in accordance with GCP.

[6] = 28-day repeated dose oral toxicokinetic study in rats; conditions: for Tmax: rat, in vivo, po
Method: A 28-day repeated dose oral toxicokinetic study of Compound I was performed in rats involving dose groups of 375 mg/kg, 750 mg/kg and 1500 mg/kg/day (equal to 233 mg/kg, 465 mg/kg and 930 mg/kg free base) (n=5 animals/sex/group). Blood samples were taken after the first and after the last doses to determine the kinetic parameters.

CRL: NMRI BR mice = conditions: mouse, 5000 mg/kg
Method: On the basis of acute oral toxicity of test item Compound I in CRL: NMRI BR mice the dose level 5000 mg/kg (equal to 3101 mg/kg free base) was examined in the micronucleus test.

[7] = dog, 70-210 mg/kg/day oral, 28 days

Compound: [O-][n+]1cccc(/C(Cl)=N/OC[C@H](O)CN2CCCCC2)c1 [Compound I, N-[2-hydroxy-3-(1-piperidinyl)-propoxy]-pyridine-1-oxide-3-carboximidoyl chloride]
- major elimination route [1]: eliminated with urine
- AUC of radioactivity relative to parent compound ([1]; iv): about 8 times
- central volume of distribution Vc ([1]; iv, 6.45 mg/kg): 1.50 ± 0.5 L/kg
- first apparent elimination half-life ([1]; iv, 6.45 mg/kg): 19.8 ± 30.6 min
- second apparent elimination half-life ([1]; iv, 6.45 mg/kg): 75.6 ± 12 min
- mean AUC of radioactivity relative to parent compound ([1]; po): about 10 times
- peak concentration of radioactivity relative to Compound I ([1]; po): 1.7 times
- radioactivity concentration at two weeks ([1]; po): 0.014±0.004 μgE/ml
- serum radioactivity at 12 h, share of peak ([1]; po): about 15%
- absorption half-life ([1]; po, 6.45 mg/kg): 22.8 min
- oral bioavailability ([1]; po, 6.45 mg/kg): 77%
- oral bioavailability of total radioactivity ([1]; po, 6.45 mg/kg): 104%
- peak concentration ([1]; po, 6.45 mg/kg): 0.94 ± 0.37 µg/mL
- start of absorption after dosing ([1]; po, 6.45 mg/kg): 15 to 120 min
- time of peak concentration ([1]; po, 6.45 mg/kg): 1 to 2 h
- ECG or ophthalmological alterations (Beagle dogs [2]): no direct treatment related ECG or opthalmological alterations
- clinical signs (Beagle dogs [2]): decreased activity, tremor, ptosis, salivation, increased muscle tone, vomiting and thin feces
- liver histopathology (Beagle dogs [2]): moderate degree proliferation of cells belonging to the mononuclear phagocyte system (MPS) of the liver
- mortality (Beagle dogs [2]): no death occurred
- clearance [3]: higher than the hepatic clearance
- time of peak serum values ([3]; po, 25.8 mg/kg): 15 min
- No observed adverse effect level (NOAEL) (Beagle dogs [4]; by base): 43.4 mg/kg/day
- No observed adverse effect level (NOAEL) (Beagle dogs [4]; by citrate): 70 mg/kg/day
- ECG and ophthalmologic alterations (Beagle dogs [4]; [7]): did not cause ECG and opthalmologic alterations
- mortality (Beagle dogs [4]; [7]): No deaths occurred
- amount of metabolite No. 1 (rat hepatocytes): 0.32 % of the total radioactivity
- amount of metabolite No. 2 (rat hepatocytes): 1.89 % of the total radioactivity
- amount of metabolite No. 3 (rat hepatocytes): 47.7 % of the total radioactivity
- amount of metabolite No. 4 (rat hepatocytes): 15.1 % of the total radioactivity
- clearance (rat hepatocytes; rat, hepatocytes): 0.84 mL/h
- t1/2 (rat hepatocytes; rat, hepatocytes): 49.2 min
- dose-adjusted AUC0-8 h ratio (2×50 mg dosing level/100 mg dosing level) ([5]; Day 1): 0.95
- dose-adjusted Cmax ratio (2×50 mg dosing level/100 mg dosing level) ([5]; Day 1): 0.94
- dose-adjusted AUC0-8 h ratio (2×50 mg dosing level/100 mg dosing level) ([5]; Day 10): 1.02
- dose-adjusted Cmax ratio (2×50 mg dosing level/100 mg dosing level) ([5]; Day 10): 0.88
- Racc accumulation ratio = AUC0-8 Day 10/AUC0-8 Day 1, GeoM ([5]; Treatment A, 50 mg tid): 1.512
- Racc accumulation ratio = AUC0-8 Day 10/AUC0-8 Day 1, MEAN ([5]; Treatment A, 50 mg tid): 1.525
- Racc accumulation ratio = AUC0-8 Day 10/AUC0-8 Day 1, MEAN ([5]; Treatment B, 100 mg tid): 1.426
- Racc accumulation ratio = AUC0-8 Day 10/AUC0-8 Day 1, GeoM ([5]; continuation of Treatment B (100 mg tid) under a head printed as Treatment A): 1.415
- AUC0-inf, GeoM ([5]; human, in vivo, 50 mg): 680 ng·h/mL
- AUC0-inf, MEAN ([5]; human, in vivo, 50 mg): 691 ng·h/mL
- AUC0-tz, GeoM ([5]; human, in vivo, 50 mg): 621 ng·h/mL
- AUC0-tz, MEAN ([5]; human, in vivo, 50 mg): 632 ng·h/mL
- LinPK = AUC0-8 Day 10/AUC0-inf, GeoM ([5]; human, in vivo, 50 mg): 1.148
- LinPK = AUC0-8 Day 10/AUC0-inf, MEAN ([5]; human, in vivo, 50 mg): 1.166
- AUC0-8, MEAN ([5]; human, in vivo, 100 mg): 1101 ng·h/mL
- AUC0-inf, GeoM ([5]; human, in vivo, 100 mg): 1303 ng·h/mL
- AUC0-inf, MEAN ([5]; human, in vivo, 100 mg): 1344 ng·h/mL
- AUC0-tz, GeoM ([5]; human, in vivo, 100 mg): 1266 ng·h/mL
- AUC0-tz, MEAN ([5]; human, in vivo, 100 mg): 1307 ng·h/mL
- AUCt, MEAN ([5]; human, in vivo, 100 mg): 1540 ng·h/mL
- LinPK = AUC0-8 Day 10/AUC0-inf, GeoM ([5]; human, in vivo, 100 mg): 1.172
- LinPK = AUC0-8 Day 10/AUC0-inf, MEAN ([5]; human, in vivo, 100 mg): 1.187
- Cmax ([6]; male rats, 750 mg/kg/day oral, Day 28): 20410 ng/mL
- Tmax ([6]; 375 mg/kg): 60 min
- Tmax ([6]; 375 mg/kg/day): 30 min
- Tmax ([6]; 750 mg/kg): 120 min
- Tmax ([6]; 1500 mg/kg): 120 min
- mutagenicity in vivo (CRL: NMRI BR mice): non-mutagenic
- number of micronucleated polychromatic erythrocytes (MPCEs) (CRL: NMRI BR mice; in vivo): did not induce a significant increase
